This note sets out measurements from article PMC3228860, “Mitochondrial NAD^+-dependent malic enzyme from Anopheles stephensi: a possible novel target for malaria mosquito control” (2011).

In general, Ki refers to a measure of affinity in units of concentration, obtained from inhibition or displacement. High values mean weaker binding, low ones tighter binding.

Each structure is given as a SMILES string.

The test has as its target mitochondrial NAD+-dependent malic enzyme (ME). Put plainly: NADH formation at […] nm, mitochondrial lysate, Ki from reciprocal plots. The test is classed as biochemical, Anopheles stephensi.
The compound `O=C(O)C(=O)O` [Oxalate] registered a Ki of 150 nM.
Compound `O=C(O)CC(=O)C(=O)O` [Oxaloacetate] yielded a Ki of 120 nM.
`O=C(O)C(O)C(=O)O` [Tartronate] registered a Ki of 610 nM.
